Literature values as cited in patent US12472190B2, “Pharmaceutical compositions” (CIPLA Limited, priority 2010, dated 2025).

Settings: relative to S (−) isomer of budesonide; no test described

## CCC[C@@H]1O[C@@H]2C[C@H]3[C@@H]4CCC5=CC(=O)C=C[C@]5(C)[C@H]4[C@@H](O)C[C@]3(C)[C@]2(C(=O)CO)O1 [R (+) budesonide]
  anti-inflammatory properties as compared to S (−) isomer: nearly three times as strong
